Biological target: T1, Ileal sodium/bile acid cotransporter (Homo sapiens, UniProt Q12908)
T1 sequence (Q12908 whole entry): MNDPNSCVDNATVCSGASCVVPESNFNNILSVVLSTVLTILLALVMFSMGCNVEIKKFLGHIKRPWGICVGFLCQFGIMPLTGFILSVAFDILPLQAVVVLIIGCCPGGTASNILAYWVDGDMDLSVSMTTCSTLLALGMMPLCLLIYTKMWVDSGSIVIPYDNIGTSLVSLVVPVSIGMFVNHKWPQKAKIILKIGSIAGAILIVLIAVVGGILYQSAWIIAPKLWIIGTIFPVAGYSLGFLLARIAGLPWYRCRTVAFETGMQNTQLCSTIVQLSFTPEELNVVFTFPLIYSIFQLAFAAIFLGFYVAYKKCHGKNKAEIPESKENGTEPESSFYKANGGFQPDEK
Experiment: Inhibition Assay
Settings: 25 °C
Description: On the day of the uptake experiment, 10 mM HEPES was added to Hank's Balanced Salt Solution, and the pH was adjusted to 7.4 with TRIS (HBSSH). The assay buffer was prepared by adding 100 uM [3H]-taurocholate and 10 uM cold taurocholate to room temperature HBSSH. A separate washing buffer was prepared by adding 10 uM cold taurocholate to HBSSH (30 ml per assay plate) and placed on ice. Using 100% DMSO, 8 point, 3-fold dilution curves for each test compound was prepared starting at 200 uM. […] Drug plates were created by adding 3 uL of each concentration to a v-bottom 96-well plate then diluted 60-fold with 177 uL of assay buffer. Plates were removed from the incubator and allowed to cool to ambient temperature.

| SMILES | IC50 |
| --- | --- |
| CCCC[C@]1(CC)CS(=O)(=O)c2cc(CCCC(N)=O)c(OC)cc2[C@@H](c2ccccc2)N1 [US9040518, 24] | 0.073 µM |
| CCCC[C@]1(CC)CS(=O)(=O)c2cc(CN3CCC[C@H]3C(=O)O)c(OC)cc2[C@@H](c2ccccc2)N1 [US9040518, 63] | 8.99 µM |
